Experimental data taken from patent publication US20080267862A1, “METHOD OF TREATING CANCER” (priority 2007, published 2008).

Experiments:
[1] = tested on: recurrence lymph node masses; experiment: clinical response of recurrent lymph node masses in a patient followed by palliative chemotherapy; type: in vivo, human; conditions: one patient; LMH 4 g/day I.V. for 4 days, then 2 cycles of palliative chemotherapy with Cisplatin and 5 FU
Excerpt: […] They underwent Radical surgery in the form of total excision of primary tumors and bilateral Supra-omohyoid Neck dissection. Adjuvant External Beam Radiotherapy (EBRT) was then given 66 Gy/33 Fr 6½ weeks and the patient went into complete remission and was disease free for >9 months.
Subsequently, the patient had multiple nodal recurrences presenting with palpable masses.
(§1) Recurrences were confirmed with biopsy and HP examination. Subsequently, the patient was given 2 cycles of Palliative Chemotherapy, following Injection LMH (Lysine Monohydrochloride) for 4 days (4 g/day I.V. in divided doses), with Cisplatin and 5 FU.

[2] = tested on: squamous cell carcinomatous tumor; experiment: histopathology (HPE) of neo-angiogenesis 96 hrs after Injection LMH in a patient; type: in vivo, human; conditions: LMH 4 g/day I.V. for 4 days, HPE after 96 hrs
Excerpt: as §1
HPE was done 96 hrs after Injection LMH to confirm the neo-angiogenesis (FIGS. 4 & FIGS. 5 & FIGS. 6-9)(Also compare FIGS. 4 to 9 with FIGS. 10-11 for quantitative comparison of angiogenic response in LMH treated squamous cell carcinomatous tumor vs. control tumours).

[3] = induction of angiogenesis in-vivo; conditions: for effectiveness, on their own, in inducing angiogenesis response: each on its own
Excerpt: (§2) Lysine induced repair process depends on the ability of the amino acid/derivative(s) to induce rapid and controlled cellular expansion, both in-vitro and in-vivo. The phenomenon is probably based on the ability of the molecule(s) to act as the cell surface concentrator(s) of circulating growth factor(s). The rapid angiogenic property of the molecule(s) is also entirely dependent on the same phenomenon, where angiogenic factors are concentrated, locally, on the endothelial cell surface receptors, mediated by the molecule(s) working, possibly, as molecular bridges.

cells in culture = experiment: cellular expansion / rapid cellular growth in culture in-vitro; type: cell-based; conditions: FIG. 3
Excerpt: as §2

expanding cells in-vivo = experiment: expanding cells in-vivo
Excerpt: The present invention is based on an improvement over the inventor's earlier discovery that lysine, without the presence of any other angiogenic factor(s)/angiogenic growth factor(s)/vasculogenic/granulation tissue inducing agent(s), is capable of inducing angiogenesis in ischaemic tissues. The inventor's initial inquiries were directed towards finding new chemical additives in a high-density-culture system, in-vitro, where the objective was to expand viable hybridoma cell mass to the maximum possible at the least possible time (lag phase minimization) and maintaining the viable cell mass in culture for the maximum possible time period, in both fed-batch as well as batch cultures. The final goal was to get highest possible yields of monoclonal antibody (Mab) in the said high-density culture. […] Because of its ability to expand cells in-vitro, the cationic amino acid was taken, along with its d-isomer and short oligomer (m.w. up to or around 500-2500) to in-vivo experimentation and clinical conditions, for controlled regeneration of cells (in clinical conditions), where in-situ regeneration of cells was centrally important along with angio-neogenesis/vasculogensis.

hybridoma cell mass = conditions: high-density hybridoma culture, fed-batch and batch; Datta, D et al. 1997; cited from earlier work

Cl.NCCCC[C@H](N)C(=O)O [LMH, Lysine Monohydrochloride]
outcome of recurrence lymph node masses [1]: disappeared achieving a 2nd complete recovery
angiogenic response in glandular structure (histopathology) ([2]; FIG. 4): extensive angiogenic response
angiogenic response in tumor tissue (histopathology) ([2]; FIGS. 5-9, versus control FIGS. 10-11): huge angiogenic and massive blood channel formation

NCCCC[C@@H](N)C(=O)O [d-lysine]
effectiveness, on their own, in inducing angiogenesis response [3]: equally effective
effectiveness in inducing angiogenesis in-vivo, compared to l-lysine ([3]; in-vivo): equally effective
cellular expansion in culture (cells in culture; about 10 mcg/ml of added load, in addition to the usual load of l-lysine in the media): mediated cellular expansion in culture
effectiveness in expanding cells / inducing rapid cellular growth in-vitro, compared to l-lysine (cells in culture; in-vitro): equally effective
effectiveness in expanding cells in-vivo, compared to the l-variety (expanding cells in-vivo): equally effective

NCCCC[C@H](N)C(=O)O [l-lysine]
effectiveness, on their own, in inducing angiogenesis response [3]: equally effective
expansion of biomass (cell population) compared to other physico-chemical means (hybridoma cell mass): expand the biomass (cell population) at the least possible time
